Like-named read-outs stand apart in the source and are kept apart here.
Tests used:
[1] = target: Mushroom tyrosinase; settings: cited from earlier work
[2] = target: T1, mushroom tyrosinase (A. bisporus) (Agaricus bisporus, UniProt C7FF04); assay: Dynamic dose-dependent tyrosinase inhibition study; assay type: biochemical
T1 construct: purchased Sigma-Aldrich and Worthington Biochemical Corp
Experimental: Respectively, the final concentration gradient of the test samples was set to be 200, 150, 75, 25, 5, and 1 μM. For OD measurements, the plate was read in the dynamic mode for 60 min with measurements recorded every minute, using the SpectraMax M3 plate reader at 475 nm and 490 nm. Forty-five seconds of shaking was also performed before first reading to retain method consistency.

[3] = set-up: method as in Malla and Sommer, 2014; Kang et al., 2020; settings: ref Malla and Sommer, 2014; Kang et al., 2020; cited from earlier work
[4] = target: T2, tyrosinase (Agaricus bisporus, UniProt C7FF04); assay: Isobologram / interaction index analysis of ScyM and KA; assay type: biochemical, A. bisporus; settings: single compounds, determined again for the isobologram; read-out: IC50 (another round of dose-dependent assays)
T2 construct: purchased Sigma-Aldrich and Worthington Biochemical Corp
Source text: Based on the derived equation, γ=∑i=2ndi/Di , where Di represents the dose of an individual drug to achieve 50% efficacy when acting alone, and di represents the dose of each drug in the compound mixture when the combined drug achieves 50% efficacy. Accordingly, when the interactions between drugs are synergistic, additive, and antagonistic, the corresponding values of γ are <1, = 1, and >1, respectively. Therefore, the smaller the index value, the stronger the synergistic effect.

[5] = tested on: NCI-H460 human lung carcinoma cell line; assay: MTT cytotoxicity assay; assay type: cell-based; settings: H460 human lung cancer cells; no significant effect at concentration as high as 254 μM
Experimental: The cytotoxicity assay was performed using a protocol previously published ([Yu H.-B. et al., 2019]; [Leber et al., 2020]). Briefly, the MTT staining method was used to determine the cytotoxicity of compounds of interest using the NCI-H460 human lung carcinoma cell line purchased from ATCC (Manassas, VA, United States). The cells were grown in flasks and then seeded into wells at 3.33 × 10^4 cells/ml of Roswell Park Memorial Institute (RPMI-1640) medium with standard fetal bovine serum (FBS), leading to 180 μl/well. The cells were then pre-incubated for 24 h at 37°C in 96-well plates before drug was added. Thereafter, with addition of diluted compounds of interest dissolved in DMSO, plates were incubated for an additional 48 h and then stained with MTT (thiazolyl blue tetrazolium bromide 98%; Sigma-Aldrich) for 25 min, after which the optical densities (OD) were recorded at 630 and 570 nm for each well on a SpectraMax M3 plate reader (Molecular Devices, San Jose, CA, United States). Doxorubicin and 1% DMSO in RPMI-1640 without fetal bovine serum were used as positive and negative controls, respectively. Polyethylene glycol (PEG) was used to facilitate dissolution of compounds with limited solubility.

[6] = Solubility of ScyM in the assay buffer system
[7] = target: T3, mushroom tyrosinase (Agaricus bisporus, UniProt C7FF04); assay: Kinetic analysis of tyrosinase and inhibitors (Lineweaver-Burk); assay type: biochemical, A. bisporus
T3 construct: purchased Sigma-Aldrich and Worthington Biochemical Corp
Experimental: The Lineweaver–Burk plot was generated using Graphpad Prism 9.2.0. Experiments were performed in triplicate.
A kinetic study was performed to better understand the tyrosinase inhibitory properties of ScyM. For this kinetic mode analysis, varying concentrations of substrate and inhibitor were used in the assays in order to generate Lineweaver–Burk plots. […] The Lineweaver–Burk plot (Figures 6A,B), also known as the double reciprocal plot, is commonly used to determine the mechanism of how an inhibitor is inhibiting an enzyme. […] Two inhibition parameters, the Michaelis–Menten constant (Km) and maximal velocity (Vmax), are also visualized in this plot. […] The apparent Km and Vmax values were calculated as an average of triplicate measurements and are provided with standard deviations (see Table 2).

[8] = target: T1, mushroom tyrosinase (A. bisporus); assay: End-point colorimetric tyrosinase inhibition assay (broad screening); assay type: biochemical; settings: within 20 minutes; 475 and 490 nm; blank with enzyme rises to ~0.100
Experimental: Four types of assay wells were designated for each screening plate (see Supplementary Figure S2 for visualization), in which the following reaction mixtures were added: A [Blank Control with Enzyme] contains 2 μl of DMSO, 118 μl of prepared 0.067 M sodium phosphate buffer and 40 μl of tyrosinase (100 units/ml) in the same buffer; B [Blank Control without Enzyme] contains 2 μl of DMSO and 158 μl of 0.067 M sodium phosphate buffer; C [Testing Material with Enzyme] contains 2 μl of sample (1 mg/ml in DMSO), 118 μl of 0.067 M sodium phosphate buffer and 40 μl of tyrosinase (100 Units/mL) in the same buffer; D [Testing Material without Enzyme] contains 2 μl of sample (1 mg/ml in DMSO) and 158 μl of 0.067 M sodium phosphate buffer. Samples were tested in triplicate.
The final test sample concentration was 10 μg/ml, while the final DMSO concentrations for both negative controls and samples kept ≤1%. […] Forty-five seconds of shaking was performed by the instrument before the wells were read.
The percentage inhibition of the tyrosinase activity was calculated by the equation: % Inhibition = {[(A − B) − (C − D)]/(A − B)} × 100, where A, B, C and D are all OD values from the corresponding wells at the same time point. It reflects the inhibitory strength of the testing material by comparing to the blank condition where no inhibitor is added.

[9] = mushroom tyrosinase, ref Paudel et al., 2019
[10] = mushroom tyrosinase, SD not given, ref Sheng et al., 2018
[11] = mushroom tyrosinase, SD not given, ref Li et al., 2005
[12] = mushroom tyrosinase, SD not given, ref Wu et al., 2013

T3 sequence (C7FF04 1-392): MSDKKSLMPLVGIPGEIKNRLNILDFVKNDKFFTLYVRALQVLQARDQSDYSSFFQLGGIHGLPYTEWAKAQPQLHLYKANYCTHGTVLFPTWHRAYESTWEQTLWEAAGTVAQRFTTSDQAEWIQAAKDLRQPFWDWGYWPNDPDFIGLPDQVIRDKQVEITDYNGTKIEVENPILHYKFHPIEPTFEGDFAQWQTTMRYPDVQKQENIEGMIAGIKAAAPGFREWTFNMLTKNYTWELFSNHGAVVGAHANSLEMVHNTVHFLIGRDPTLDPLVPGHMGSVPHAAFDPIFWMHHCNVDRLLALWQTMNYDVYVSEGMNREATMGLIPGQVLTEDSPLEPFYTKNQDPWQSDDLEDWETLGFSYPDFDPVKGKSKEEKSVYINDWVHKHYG
T1 sequence (C7FF04 1-392): as above
T2 sequence (C7FF04 1-392): as above

## Bis-(2,3,6-tribromo-4,5-dihydroxybenzyl methyl ether
[1]; [9]
  IC50: 111 ± 4.95 µM
[1]; ref Paudel et al., 2019
  Mechanism: Competitive

## COc1ccc(/C=C/C(=O)Oc2cc(OC)ccc2C(C)=O)cc1 [(E)-2-Acetyl-5-methoxyphenyl-3-(4-methoxyphenyl)acrylate]
[1]; [10]
  IC50: 8.3 µM
[1]; ref Sheng et al., 2018
  Mechanism: Mixed

## OCCc1c(Br)c(O)c(O)c(Br)c1Br [2,3,6-Tribromo-4,5-dihydroxybenzyl methyl alcohol]
[1]; [9]
  IC50: 270.5 ± 2.04 µM
[1]; ref Paudel et al., 2019
  Mechanism: Competitive

## C=C[C@]1(O)CC(NC=O)=CC1=O [Myrothenone A]
[1]; [11]
  IC50: 6.6 µM

## Cc1ccc(C(C)C)c(OC(=O)/C=C/c2ccc(O)cc2)c1 [(E)-2-Isopropyl-5-methylphenyl-3-(4-hydroxyphenyl)acrylate]
[1]; [10]
  IC50: 10.6 µM
[1]; ref Sheng et al., 2018
  Mechanism: Mixed

## O=C(O)c1cccc(-c2ccccc2)c1 [3-Phenylbenzoic acid (3-PBA), 3-Phenylbenzoic acid]
[1]; mushroom tyrosinase, SD not given, ref Oyama et al., 2016
  IC50: 36.3 µM
[1]; ref Oyama et al., 2016
  Mechanism: Mixed

## CC(=O)O[C@@]12C[C@@H](C(C)(C)O)C[C@@H](OC(=O)c3ccccc3)[C@@]1(CO)[C@H](O)[C@H](O)C[C@@]2(C)OC(C)=O [4α,5α-Diacetoxy-9α-benzoyloxy-7βH-eudesman-1β,2β,11, 14-tetraol]
[1]; [12]
  IC50: 22.3 µM

## O=C(O)c1ccc(C(=O)O)cc1 [Terephthalic acid]
[1]; mushroom tyrosinase, ref Yin et al., 2011
  IC50: 26600 µM
[1]; ref Yin et al., 2011
  Mechanism: Mixed

## scytonemin
[2]; all concentrations tested, from 1 up to 200 μM
  tyrosinase inhibition in dose-dependent assay: almost no inhibition
[3]
  cytotoxicity: non-cytotoxic

## O=C1Cc2c([nH]c3ccccc23)/C1=C\c1ccc(O)cc1 [ScyM, scytonemin monomer]
[4]
  IC50: 4.7 µM
[2]
  IC50: 4.9 ± 0.3 µM
[2]; read-out: inhibition by crude ScyM
  inhibition at 25 µM: ~60%
[2]; read-out: inhibition by purified ScyM
  inhibition at 10 µM: ~60%
[5]
  cytotoxicity: non-cytotoxic
[6]; 0.067 M sodium phosphate buffer, ≤1% DMSO, precipitate seen at 75, 150 and 200 μM
  saturation point in the assay system: less than 75 μM
[6]; range of 0–10 μM
  dissolution in the assay buffer system: fully dissolves with no precipitate
[7]; Lineweaver-Burk plot, L-Dopa substrate
  Inhibition mode: Mixed
[7]; Table 3, this experiment
  Mechanism: Mixed
[7]; apparent Vmax of tyrosinase with inhibitor, L-Dopa substrate, triplicate with SD
  Vmax (OD·min^−1): 5.98 ± 0.52 OD·min^−1
[8]
  OD reading with tyrosinase enzyme: ~ 0.080

## CCCCCc1cccc(=O)o1 [6-n-Pentyl-α-pyrone]
[1]; [11]
  IC50: 0.8 µM

## COc1ccc(/C=C2/C(=O)Cc3c2[nH]c2ccccc32)cc1 [ScyM-OMe, O-Methyl Scytonemin Monomer]
[2]; 35 μM
  inhibition at 35 µM: ~1%

## O=c1cc(-c2ccccc2)oc2cc(O)c(O)c(O)c12 [Baicalein]
[1]; mushroom tyrosinase, SD not given, ref Guo et al., 2018
  IC50: 110 µM
[1]; ref Guo et al., 2018
  Mechanism: Mixed

## O=C1Cc2c([nH]c3ccccc23)/C1=C\c1ccc(O)cc1 (hydrate or solvate) [ScyM, scytonemin monomer]
other
  melting point: > 210 °C

## CC(=O)OC[C@]12[C@H](OC(C)=O)[C@H](O)C[C@H](C)[C@]1(OC(C)=O)[C@@H](OC(C)=O)[C@@H](C(C)(C)O)C[C@H]2OC(=O)c1ccccc1 [1β,5α,6α,14-Tetraacetoxy-9α-benzoyloxy-7β H-eudesman-2β,11-diol]
[1]; [12]
  IC50: 14.8 µM

## CC[C@H](C)[C@@H]1NC(=O)[C@H](Cc2ccc(O)cc2)N(C)C(=O)[C@H]([C@H](C)O)N2C(=O)[C@H](CC[C@H]2O)NC(=O)[C@H](CC(C)C)NC(=O)[C@@H](NC(=O)[C@H](CCC(N)=O)NC(=O)[C@H](CCc2ccc(O)cc2)NC(=O)[C@H](O)CO)[C@@H](C)OC1=O [oscillapeptin G]
[1]; tyrosinase, post-conversion, ref Sano and Kaya, 1996
  IC50: ~100 µM

## O=C1C=C2CC3(O)COc4cc(O)ccc4C3=C2C=C1O (stereo not drawn) [Brazilein]
[1]; mushroom tyrosinase, ref Hridya et al., 2015
  IC50: 21200 µM
[1]; ref Hridya et al., 2015
  Mechanism: Mixed

Source: publication PMC9329053, “Discovery of Novel Tyrosinase Inhibitors From Marine Cyanobacteria” (Frontiers in Microbiology, 2022)
